Reference: BindingDB's records for doi:10.1016/j.bmcl.2008.03.029 (Gifu University, 2008)

Assay: Inhibition of human recombinant SAHH at 1000 uM

`Nc1ncnc2c1ncn2[C@@H]1CC[C@@H](O)[C@H]1O` [(1R,2S,3R)-3-(6-amino-9H-purin-9-yl)cyclopentane-1,2-diol] gave an IC50 of 18 µM.
